The record followed here is patent publication US20240409552A1, “GUAIANOLIDE OLIGOMERS, PREPARATION METHOD AND APPLICATION” (KUNMING INSTITUTE OF BOTANY, CHINESE ACADEMY OF SCIENCES, priority 2021, published 2024).

Format in all cases: cell-based
The test system of experiment [1] is HepG2 cells. Kind of experiment: MTT antihepatoma assay, HepG2 cells. As to conditions: Homo sapiens, 48 h incubation. On the procedure: (§1) • (1). […] The plates were measured at 490 nm using a microplate reader (BIO-RAD, USA). The inhibitory ratio was calculated as [(A490 negative−A490 treated)/(A490 negative−A490 blank)]×100%. The IC50 values were calculated with GraphPad Prism 5 (GraphPad Software, California, USA). Repeat the experiment three times.

Experiment [2] has as its system SK-Hep-1 cells. Kind of experiment: MTT antihepatoma assay, SK-Hep-1 cells. The note with it: Homo sapiens, SK-HEP1, 48 h incubation. The method, then: as §1
(Tetrazolium dyes change colour on reduction, which living cells bring about.)

Experiment [3] deals with Huh7 cells. Kind of experiment: MTT antihepatoma assay, Huh7 cells. The note with it: Homo sapiens, Huh-7, 48 h incubation. On the procedure:
as §1

As for `C=C1C(=O)O[C@@H]2C3=C([C@H]4C[C@]3(C)[C@]3(C4)C(=O)O[C@H]4[C@H]3CCC(C)=C3C[C@H]5O[C@@]5(C)[C@@H]34)[C@@](C)(O)CC[C@@H]12` [Compound 1], the 50% inhibitory concentration (IC50) – broadly, the concentration that inhibits the measured activity by half – was 12.8 µM in experiment [1], 11.2 µM in experiment [2] and 20.2 µM in experiment [3].
The like results for `C=C1C(=O)O[C@@H]2C3=C([C@H]4C[C@]3(C)[C@]3(C4)C(=O)O[C@@H]4C5=C([C@H]6C[C@]5(C)[C@]5(C6)C(=O)O[C@@H]6C7=C([C@H]8C[C@]7(C)[C@]7(C8)C(=O)O[C@@H]8[C@H]9C(C)=CC[C@@]9%10O[C@@]%10(C)CC[C@@H]87)[C@@](C)(O)CC[C@H]65)[C@@](C)(O)CC[C@H]43)[C@@](C)(O)CC[C@@H]12` [Compound 4] were, in that order, 14.7 µM, 7.9 µM and 10.9 µM.
Consider `CNC(=O)c1cc(Oc2ccc(NC(=O)Nc3ccc(Cl)c(C(F)(F)F)c3)cc2)ccn1` [sorafenib, reference compound], for which the IC50 in experiment [1] is 12.8 µM; in experiment [2], 22.5 µM; in experiment [3] it was 10.9 µM.
As to `C=C1C(=O)O[C@@H]2C3=C([C@H]4C[C@]3(C)[C@]3(C4)C(=O)O[C@@H]4C5C(=C(C)CC[C@H]43)CC[C@@]5(C)O)[C@@](C)(O)CC[C@@H]12` (stereo partly drawn) [Compound 2], the results for the 50% inhibitory concentration (IC50) in experiment [1], in experiment [2] and in experiment [3] were 5.9 µM, 16.5 µM and 11.9 µM, respectively.
For the compound `C=C1C(=O)O[C@@H]2C3=C([C@H]4C[C@]3(C)[C@]3(C4)C(=O)O[C@@H]4C5=C([C@H]6C[C@]5(C)[C@]5(C6)C(=O)O[C@@H]6[C@H]7C(C)=CC[C@@]78O[C@@]8(C)CC[C@H]65)[C@@](C)(O)CC[C@H]43)[C@@](C)(O)CC[C@@H]12` [Compound 3], the IC50 in experiment [1] turned out to be 6.2 µM; in experiment [2], 7.2 µM; in experiment [3], 6.8 µM.
